Test results as given in ChEMBL document CHEMBL1201862, “PubChem BioAssay data set” (2004).
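Method: 48-hour compound exposure of cells in 96-well plates, five concentrations, linear interpolation of endpoints. GI50: concentration for 50% inhibition of growth.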 Calls of active or inactive are those of the source. No stated cut-off is given here; in the data, active = GI50 up to about 1.1 µM and inactive = higher.

Assays:
Assay in all cases: inhibition of tumour cell growth, NCI panel, 48 h
MDA-MB-435 = tested on: MDA-MB-435
HCC 2998 = tested on: HCC 2998
DU-145 = tested on: DU-145
SR = tested on: SR
CCRF-CEM = tested on: CCRF-CEM
OVCAR-5 = tested on: OVCAR-5
A498 = tested on: A498
MCF7 = tested on: MCF7
SK-OV-3 = tested on: SK-OV-3
SF-539 = tested on: SF-539
A549 = tested on: A549
ACHN = tested on: ACHN
SW-620 = tested on: SW-620
CAKI-1 = tested on: CAKI-1
OVCAR-3 = tested on: OVCAR-3
SK-MEL-5 = tested on: SK-MEL-5
HCT-116 = tested on: HCT-116
MDA-MB-231 = tested on: MDA-MB-231
RXF 393 = tested on: RXF 393
MDA-N = tested on: MDA-N

SMILES	GI50 (MDA-MB-435)	GI50 (HCC 2998)	GI50 (DU-145)	GI50 (SR)	GI50 (CCRF-CEM)	GI50 (OVCAR-5)	GI50 (A498)	GI50 (MCF7)	GI50 (SK-OV-3)	GI50 (SF-539)	GI50 (A549)	GI50 (ACHN)	GI50 (SW-620)	GI50 (CAKI-1)	GI50 (OVCAR-3)	GI50 (SK-MEL-5)	GI50 (HCT-116)	GI50 (MDA-MB-231)	GI50 (RXF 393)	GI50 (MDA-N)
CN(C)C(=S)NC(=S)Nc1ccc2ccccc2c1	18.8 µM (inactive)	15.5 µM (inactive)	18.2 µM (inactive)	3.97 µM (inactive)	0.804 µM (active)	21.2 µM (inactive)	12.6 µM (inactive)	10.3 µM (inactive)	24.8 µM (inactive)	15.1 µM (inactive)	6.73 µM (inactive)	18.6 µM (inactive)	9.89 µM (inactive)	13.9 µM (inactive)	14.4 µM (inactive)	7.18 µM (inactive)	6.65 µM (inactive)	20 µM (inactive)	18.4 µM (inactive)	12.9 µM (inactive)
COc1ccc(CCNC(=O)Cc2cc(OC)c(OC)cc2CO)cc1OC	> 100 µM (inactive)	> 100 µM (inactive)	> 100 µM (inactive)	> 100 µM (inactive)	> 100 µM (inactive)	> 100 µM (inactive)	> 100 µM (inactive)	> 100 µM (inactive)	> 100 µM (inactive)	> 100 µM (inactive)	> 100 µM (inactive)	> 100 µM (inactive)	> 100 µM (inactive)	> 100 µM (inactive)	> 100 µM (inactive)	> 100 µM (inactive)	> 100 µM (inactive)	> 100 µM (inactive)	> 100 µM (inactive)	> 100 µM (inactive)
O=C1CC(NC2CC(=O)c3c(Br)sc(Br)c32)c2c(Br)sc(Br)c21 (stereo not given)	3.72 µM (inactive)	17 µM (inactive)	4.58 µM (inactive)	2.28 µM (inactive)	0.998 µM (active)	20.2 µM (inactive)	18.6 µM (inactive)	2.81 µM (inactive)	17.8 µM (inactive)	1.27 µM (inactive)	17.5 µM (inactive)	2.39 µM (inactive)	2.08 µM (inactive)	3.63 µM (inactive)	4.44 µM (inactive)	5.96 µM (inactive)	2.14 µM (inactive)	3.42 µM (inactive)	3.38 µM (inactive)	2.06 µM (inactive)
CCOC(=O)/C(=C\NC(=S)Nc1ccc(OCC)cc1)C(=O)c1ccccc1	> 100 µM (inactive)	> 100 µM (inactive)	> 100 µM (inactive)	> 100 µM (inactive)	> 100 µM (inactive)	> 100 µM (inactive)	20.7 µM (inactive)	> 100 µM (inactive)	> 100 µM (inactive)	> 100 µM (inactive)	> 100 µM (inactive)	> 100 µM (inactive)	> 100 µM (inactive)	> 100 µM (inactive)	> 100 µM (inactive)	> 100 µM (inactive)	> 100 µM (inactive)	> 100 µM (inactive)	> 100 µM (inactive)	> 100 µM (inactive)
C/N=c1\sc2nc(C#N)c(C#N)nc2n1C	21 µM (inactive)	25.5 µM (inactive)	36.6 µM (inactive)	> 57 µM (inactive)	19.7 µM (inactive)	19.2 µM (inactive)	20.5 µM (inactive)	18.5 µM (inactive)	28 µM (inactive)	38.7 µM (inactive)	18 µM (inactive)	22.5 µM (inactive)	18.4 µM (inactive)	23.8 µM (inactive)	24.5 µM (inactive)	19.1 µM (inactive)	18.9 µM (inactive)	40.1 µM (inactive)	18.7 µM (inactive)	22.4 µM (inactive)
COc1cccc2c1C(=O)c1ccc3cc(CCl)cc(O)c3c1C2=O	0.198 µM (active)	0.951 µM (active)	0.762 µM (active)	0.04 µM (active)	0.309 µM (active)	0.157 µM (active)	1.19 µM (inactive)	0.289 µM (active)	1.19 µM (inactive)	0.272 µM (active)	0.414 µM (active)	0.233 µM (active)	0.127 µM (active)	0.733 µM (active)	0.243 µM (active)	0.364 µM (active)	0.1 µM (active)	0.205 µM (active)	0.244 µM (active)	0.231 µM (active)
Cc1cccc(C(C)C)c1NC(=O)C(=O)CC(=O)c1sc(Nc2ccccc2Cl)nc1C	7.26 µM (inactive)	11.6 µM (inactive)	71.4 µM (inactive)	18.2 µM (inactive)	30.3 µM (inactive)	> 100 µM (inactive)	> 100 µM (inactive)	10.3 µM (inactive)	20.7 µM (inactive)	4 µM (inactive)	31.4 µM (inactive)	51.4 µM (inactive)	35.2 µM (inactive)	85.3 µM (inactive)	32 µM (inactive)	13.5 µM (inactive)	8.79 µM (inactive)	41 µM (inactive)	40.6 µM (inactive)	9.79 µM (inactive)
CCOC(=O)/C=C(/C(=O)OCC)n1ccc(=O)n(Cc2cnnn2COCCOC(C)=O)c1=O	16.6 µM (inactive)	16.2 µM (inactive)	20.7 µM (inactive)	13.4 µM (inactive)	0.713 µM (active)	18.2 µM (inactive)	24 µM (inactive)	10.4 µM (inactive)	> 100 µM (inactive)	11 µM (inactive)	41.1 µM (inactive)	8.73 µM (inactive)	3.98 µM (inactive)	5.93 µM (inactive)	14.9 µM (inactive)	19.1 µM (inactive)	18.9 µM (inactive)	18.6 µM (inactive)	15.4 µM (inactive)	23.2 µM (inactive)
CC(=O)OCc1ccc2oc(=O)c(C(=O)Oc3ccccc3)cc2c1	61.9 µM (inactive)	> 100 µM (inactive)	> 100 µM (inactive)	33.3 µM (inactive)	> 100 µM (inactive)	> 100 µM (inactive)	> 100 µM (inactive)	30.3 µM (inactive)	> 100 µM (inactive)	> 100 µM (inactive)	> 100 µM (inactive)	91.6 µM (inactive)	32.9 µM (inactive)	20 µM (inactive)	> 100 µM (inactive)	> 100 µM (inactive)	15.6 µM (inactive)	27.8 µM (inactive)	44.6 µM (inactive)	> 100 µM (inactive)
NC1CC(=O)c2csc(Br)c21 (stereo not given)	12.9 µM (inactive)	18.5 µM (inactive)	20.7 µM (inactive)	5.09 µM (inactive)	4.15 µM (inactive)	14.4 µM (inactive)	> 36.5 µM (inactive)	21.1 µM (inactive)	> 64.6 µM (inactive)	2.52 µM (inactive)	36.7 µM (inactive)	16.4 µM (inactive)	4.84 µM (inactive)	10.9 µM (inactive)	15.3 µM (inactive)	20.9 µM (inactive)	11.2 µM (inactive)	23.9 µM (inactive)	17.2 µM (inactive)	13.6 µM (inactive)
CC(NNC(=O)c1cc[n+]([BH2-]C#N)cc1)C(F)(F)F (stereo not given)	> 100 µM (inactive)	> 100 µM (inactive)	> 100 µM (inactive)	> 100 µM (inactive)	> 100 µM (inactive)	> 100 µM (inactive)	> 100 µM (inactive)	> 100 µM (inactive)	> 100 µM (inactive)	> 100 µM (inactive)	> 100 µM (inactive)	> 100 µM (inactive)	> 100 µM (inactive)	> 100 µM (inactive)	> 100 µM (inactive)	> 100 µM (inactive)	> 100 µM (inactive)	> 100 µM (inactive)	> 100 µM (inactive)	> 100 µM (inactive)
CN(C)c1ccc(/C=C2\CCCCCC2=O)cc1	> 100 µM (inactive)	> 100 µM (inactive)	> 100 µM (inactive)	> 100 µM (inactive)	> 100 µM (inactive)	> 100 µM (inactive)	> 100 µM (inactive)	> 100 µM (inactive)	> 100 µM (inactive)	> 100 µM (inactive)	> 100 µM (inactive)	58.7 µM (inactive)	> 100 µM (inactive)	> 100 µM (inactive)	71.1 µM (inactive)	56 µM (inactive)	57.3 µM (inactive)	32.7 µM (inactive)	> 100 µM (inactive)	> 100 µM (inactive)
CC1(C)CC[C@]2(C(=O)O)CC[C@]3(C)C(=CC[C@@H]4[C@@]5(C)C[C@H](O)[C@H](O)[C@@](C)(C(=O)O)[C@@H]5CC[C@]43C)[C@@H]2C1	> 100 µM (inactive)	> 100 µM (inactive)	> 100 µM (inactive)	> 100 µM (inactive)	> 100 µM (inactive)	> 100 µM (inactive)	> 100 µM (inactive)	> 100 µM (inactive)	> 100 µM (inactive)	> 100 µM (inactive)	> 100 µM (inactive)	> 100 µM (inactive)	> 100 µM (inactive)	> 100 µM (inactive)	> 100 µM (inactive)	> 100 µM (inactive)	> 100 µM (inactive)	> 100 µM (inactive)	> 100 µM (inactive)	> 100 µM (inactive)
COC(=O)NCCc1n[nH]c2c1C(=O)C=C(Nc1ccccc1OC)C2=O	17.1 µM (inactive)	17.7 µM (inactive)	42.4 µM (inactive)	28.5 µM (inactive)	30.1 µM (inactive)	61.4 µM (inactive)	31.7 µM (inactive)	16 µM (inactive)	> 100 µM (inactive)	17.5 µM (inactive)	41.2 µM (inactive)	38.6 µM (inactive)	20.8 µM (inactive)	33.9 µM (inactive)	7.64 µM (inactive)	13.7 µM (inactive)	18.9 µM (inactive)	27 µM (inactive)	94 µM (inactive)	18.1 µM (inactive)
